# Data as given in US11590116B2 (THERAVANCE BIOPHARMA R&D IP, LLC, priority 2019, dated 2023).
# Legend:
# [1] = tested on: TGF-β-stimulated SMAD3 phosphorylation in BEAS-2B cells; assay: Cellular ALK5 potency assay, inhibition of TGF-β stimulated pSMAD3 formation in BEAS-2B cells; assay type: cell-based; conditions: Homo sapiens; inhibition of TGF-β stimulated pSMAD3 formation, BEAS-2B cells; read-out: BEAS2B pIC50 (converted)
# Procedure, shortened: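 AlphaLISA pSMAD3 read-out, beads incubated overnight. Human BEAS-2B cells: 1 h compound preincubation (37 °C, 5% CO2), then 30 min TGF-β at 10 ng/mL final, immediate lysis. Values are pIC50 relative to stimulated, compound-free baseline.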
# [2] = biological target: T1, recombinant human ALK5 (TGF-βR1) protein (Homo sapiens, UniProt P36897); assay: Biochemical ALK5 (TGF-βR1) assay to measure pKi (LANCE Ultra ULight kinase assay); conditions: apparent pKi from pIC50 by Cheng-Prusoff, read-out: ALK5 pKi (converted)
# T1 construct: purchased Life Technologies PR9075A
# T1 sequence (P36897 34-503): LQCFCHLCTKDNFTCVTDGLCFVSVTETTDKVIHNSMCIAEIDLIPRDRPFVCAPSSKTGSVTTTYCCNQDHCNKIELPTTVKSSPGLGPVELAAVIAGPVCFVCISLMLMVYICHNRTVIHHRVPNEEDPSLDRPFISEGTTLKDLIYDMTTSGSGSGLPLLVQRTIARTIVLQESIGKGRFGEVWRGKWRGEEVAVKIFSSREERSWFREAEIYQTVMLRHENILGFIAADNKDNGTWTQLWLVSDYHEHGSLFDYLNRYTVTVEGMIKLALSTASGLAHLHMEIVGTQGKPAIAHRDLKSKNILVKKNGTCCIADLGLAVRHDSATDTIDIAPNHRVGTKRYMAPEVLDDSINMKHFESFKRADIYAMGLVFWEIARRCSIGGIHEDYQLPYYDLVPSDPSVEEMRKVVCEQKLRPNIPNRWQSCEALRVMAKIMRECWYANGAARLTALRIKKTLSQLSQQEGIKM
# Procedure, shortened: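 Dose range 10 μM–25 pM; enzyme + compound 60 min RT; ATP added (5× stock 125 μM, 2 mM DTT); 60 min 37 °C; stop with EDTA + Eu anti-phospho-Topo IIα Thr1342 Ab; TR-FRET ex 320/340, em 665 nm. 4-param pIC50 → pKi (Cheng-Prusoff).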
Structure (SMILES),Ki [2],IC50 [1]
"Cc1cccc(-c2nnn(Cc3ccccc3)c2-c2ccc3ncc(NCCN4CCN(C(C)C)CC4)cc3n2)n1 [Compound 373, 6-(1-benzyl-4-(6-methylpyridin-2-yl)-1H-1,2,3-triazol-5-yl)-N-(2-(4-isopropylpiperazin-1-yl)ethyl)-1,5-naphthyridin-3-amine]",0.0398 to 0.316 nM,200 to 1260 nM
"Cc1cccc(-c2n[nH]cc2-c2ccc3nccc(C4COCC(C)N4)c3n2)n1 (centres unmarked) [Compound 863, 3-methyl-5-[6-[3-(6-methyl-2-pyridyl)-1H-pyrazol-4-yl]-1,5-naphthyridin-4-yl]morpholine]",3.98 to 31.6 nM,200 to 1260 nM
"Cc1cccc(-c2n[nH]cc2-c2ccc3ncc(N4C[C@@H](C)NC[C@H]4C)cc3n2)n1 (racemic) [Compound 462, 2-[3-(6-methyl-2-pyridyl)-1H-pyrazol-4-yl]-7-[rac-(2R,5R)-2,5-dimethylpiperazin-1-yl]-1,5-naphthyridine]",0.398 to 3.16 nM,25.1 to 158 nM
"Cc1cccc(-c2n[nH]cc2-c2ccc3ncc(-c4cnc5n4CCNC5)cc3n2)n1 [Compound 548, 2-[3-(6-methyl-2-pyridyl)-1H-pyrazol-4-yl]-7-(5,6,7,8-tetrahydroimidazo[1,2-a]pyrazin-3-yl)-1,5-naphthyridine]",0.0398 to 0.316 nM,25.1 to 158 nM
"Cc1cccc(-c2n[nH]cc2-c2ccc3nccc(CN4CCOCC4)c3n2)n1 [Compound 811, 4-[[6-[3-(6-methyl-2-pyridyl)-1H-pyrazol-4-yl]-1,5-naphthyridin-4-yl]methyl]morpholine]",0.0398 to 0.316 nM,200 to 1260 nM
"Cc1cccc(-c2[nH]ncc2-c2ccc3ncc(C(=O)OCCN4C[C@@H](C)N[C@@H](C)C4)cc3c2)n1 [Compound 1238, 2-[(3S,5R)-3,5-dimethylpiperazin-1-yl]ethyl 6-[5-(6-methyl-2-pyridyl)-1H-pyrazol-4-yl]quinoline-3-carboxylate]",0.0398 to 0.316 nM,25.1 to 158 nM
"Cc1cccc(-c2n[nH]cc2-c2ccc3ncc(-c4cn5c(n4)CN(CCO)CC5)cc3n2)n1 [Compound 198, 2-[2-[6-[3-(6-methyl-2-pyridyl)-1H-pyrazol-4-yl]-1,5-naphthyridin-3-yl]-6,8-dihydro-5H-imidazo[1,2-a]pyrazin-7-yl]ethanol]",0.0398 to 0.316 nM,25.1 to 158 nM
"Cc1cccc(-c2[nH]ncc2-c2ccc3nccc(C(=O)O)c3c2)n1 [Compound 1064, 6-[5-(6-methyl-2-pyridyl)-1H-pyrazol-4-yl]quinoline-4-carboxylic acid]",3.98 to 31.6 nM,1580 to 10000 nM

# Further lines, with some results ahead:
Ki [2],Structure (SMILES),IC50 [1]
3.98 to 31.6 nM,"Cc1cccc(-c2[nH]cnc2-c2ccc3ncc(C(=O)O)cc3c2)n1 [Compound 796, 6-[5-(6-methyl-2-pyridyl)-1H-imidazol-4-yl]quinoline-3-carboxylic Acid]",1580 to 10000 nM
0.0398 to 0.316 nM,"Cc1cccc(-c2[nH]cnc2-c2ccc3ncc(-c4csc(C(=O)O[C@H]5CCN(C)C5)c4)cc3c2)n1 [Compound 755, [(3S)-1-methylpyrrolidin-3-yl] 4-[6-[5-(6-methyl-2-pyridyl)-1H-imidazol-4-yl]-3-quinolyl]thiophene-2-carboxylate]",< 20 nM
0.398 to 3.16 nM,"Cc1cccc(-c2[nH]cnc2-c2ccc3ncc(C(=O)O[C@H]4CCNC4)cc3c2)n1 [Compound 757, [(3S)-pyrrolidin-3-yl] 6-[5-(6-methyl-2-pyridyl)-1H-imidazol-4-yl]quinoline-3-carboxylate]",25.1 to 158 nM
0.398 to 3.16 nM,"Cc1cccc(-c2[nH]cnc2-c2ccc3ncc(C(=O)OCCN4CC5(CNC5)C4)cc3c2)n1 [Compound 894, 2-(2,6-diazaspiro[3.3]heptan-2-yl)ethyl 6-(5-(6-methylpyridin-2-yl)-1H-imidazol-4-yl)quinoline-3-carboxylate]",200 to 1260 nM
< 0.0316 nM,"Cc1cccc(-c2[nH]cnc2-c2ccc3ncc(N4CCC5(CCNC5)C4)cc3c2)n1 (centres unmarked) [Compound 387, 3-(2,7-diazaspiro[4.4]nonan-2-yl)-6-[5-(6-methyl-2-pyridyl)-1H-imidazol-4-yl]quinoline]",25.1 to 158 nM
